PMC8576102, “Structure–Activity Relationship of Novel Second-Generation Synthetic Cathinones: Mechanism of Action, Locomotion, Reward, and Immediate-Early Genes” (Frontiers in Pharmacology, 2021)

Tests used:
hSERT = target: T1, hSERT (Homo sapiens, UniProt P31645); assay: Uptake inhibition assay, [3H]5-HT uptake in transfected HEK293 cells; format: cell-based
T1 construct: YFP (yellow-fluorescent protein); expressed in transfected cells
Protocol: (§1) Human embryonic kidney (HEK293) cells stably expressing the yellow-fluorescent protein (YFP)-tagged version of the human isoforms of SERT (abbreviated as SERT) and DAT (abbreviated as DAT) were used for the uptake inhibition and release assays. The generation and maintenance of stable, monoclonal cell lines expressing these transporters was conducted as described by ([Mayer F. P. et al., 2016]; [Mayer et al., 2016 FP.]). HEK293 cells were maintained in DMEM supplemented with heat-inactivated 10% FBS, 100 µg/100 ml streptomycin, 100 U/ml penicillin, and Geneticin (G418; 50 μg/ml) and cultured in a humidified atmosphere (5% CO2, 37°C). The cells were seeded at a density of 0.36 million cells/well onto 96-well plates previously coated (24 h) with poly-D-lysine (PDL).
(§2) The medium was removed and immediately replaced with 200 µL/well of Krebs-HEPES buffer (KHB; 10 mM HEPES, 120 mM NaCl, 3 mM KCl, 2 mM CaCl2·2H2O, 2 mM MgCl2·6H2O, 20 mM D-glucose; pH 7.3). The cells were pre-incubated with different concentrations of the drug in KHB at a final volume of 50 µL/well for 5 min (DAT, SERT). Immediately after, the pre-incubation solution was removed and the cells were incubated with the tritiated substrates, 0.02 µM [^3H]MPP^+ for the DAT (3 min) and 0.1 µM [^3H]5-HT for the SERT (1 min), along with different concentrations of the drug in KHB. Finally, the [^3H]substrate was removed and the cells were washed with ice-cold KHB followed by the addition of sodium dodecyl sulfate (SDS) 1%. The lysate was then added to the scintillation fluid, and the radioactivity was quantified with a beta-scintillation counter (Perkin Elmer, Waltham, MA, United States).
(§3) The uptake in the absence of the drug compound was normalized to 100%, being the percentage of the uptake in the presence of different concentrations of the drug expressed as a percentage thereof. 3–4 independent experiments were performed in duplicate.
(§4) Data were expressed as mean ± SEM. Competition curves were plotted and fitted by non-linear regression, and data were best fitted to a sigmoidal dose-response curve to obtain an IC50 value. 1/DAT IC50: 1/SERT IC50 was used to calculate transporter ratios. Data from batch release assays were statistically analyzed with a mixed-effects model, employing Šidák’s correction for multiple comparisons. One-way/two-way ANOVA or two-way ANOVA of repeated measures, followed by Tukey’s or Dunnett’s post hoc test, was also used when appropriate. The α error probability was set at 0.05 (p < 0.05). The size group for each experiment and statistical results are shown in the corresponding legend of figures. Statistical calculations were performed using GraphPad Prism (GraphPad Software, San Diego, CA, United States).

hDAT = target: T2, hDAT (Homo sapiens, UniProt Q01959); assay: Uptake inhibition assay, [3H]MPP+ uptake in transfected HEK293 cells; format: cell-based; conditions: for hDAT/hSERT ratio: 1/DAT IC50: 1/SERT IC50
T2 construct: YFP (yellow-fluorescent protein); expressed in transfected cells
Protocol: as §1, §2, §3, §4

SERT = test system: T3, SERT; assay: Batch release assay, [3H]5-HT release from SERT-expressing HEK293 cells; format: cell-based, human; conditions: compound close to its IC50; KHB vs KHB + monensin 10 µM
T3 construct: YFP (yellow-fluorescent protein); expressed in transfected cells
Protocol: as §1
HEK293 cells expressing the transporter of interest were preloaded with the tritiated substrate 0.08 μM [^3H]5-HT (SERT) or 0.1 μM [^3H]MPP^+ (DAT) in KHB (50 μL/well) for 20 min (5% CO2, 37°C). Subsequently, the cells were washed three times using KHB (200 μL/well) at room temperature. Afterward, a pre-incubation step of 10 min in KHB or in KHB + monensin (Mon) 10 μM was done. […] To determine the specificity of drug-induced reverse transport, selective transporter inhibitors 0.05 μM paroxetine (SERT) and 0.5 μM of GBR12909 (DAT) and effective releasers 10 μM p-chloroamphetamine (PCA; SERT) and 10 μM d-amphetamine (DAT) were used (Supplementary Figure S1). The resulting supernatant was collected and transferred to a new well every 2 min (four times for KHB/Mon and five times for each tested compound). Three independent experiments were performed in duplicate. Liquid scintillation cocktail was added to the wells with remaining cells (200 μL) and with the transferred supernatant (100 μL) and to the wells used for total uptake and activity measurements (200 μL). Total radioactivity present in the supernatant and in the remaining cells was set as 100%, and the amount of [^3H] substrate present in the supernatant was expressed as percentage of the total.
as §4

Swiss CD-1 mice = assay: Horizontal locomotor activity (HLA); format: in vivo; conditions: for HLA after 30 mg/kg compared to the medium dose (10 mg/kg): 30 mg/kg vs 10 mg/kg i.p.
Arc mRNA [1] = assay: Arc mRNA expression (qPCR) in ventral and dorsal striatum; format: in vivo, mice; conditions: 10 mg/kg i.p., 120 min after administration, vs saline
Protocol: (§5) Mice were injected with an acute dose of 10 mg/kg i.p. of the corresponding synthetic cathinone or saline solution. The dose was chosen according to the behavioral results obtained since it caused significant response in both CPP and HLA tests in all compounds tested. 30 min or 2 h post-administration, mice were sacrificed by cervical dislocation and the VS, DS, and mPFC were dissected out ([Paxinos and Franklin, 2004]) using a mouse brain acrylic matrix (Agnthos, Sweden) and stored at -80°C until use. Total RNA was isolated following a standard TRIsure reagent–chloroform extraction protocol ([Duart-Castells et al., 2019]).
(§6) Reverse transcription polymerase chain reaction (RT-PCR) was carried out to obtain complementary DNA (cDNA) by using the High Capacity cDNA Reverse Transcription Kit (Applied Biosystems) and the Veriti thermal cycler (Applied Biosystems, Foster, CA, United States). Synthesis of cDNA was obtained by mixing 1,000 ng of total RNA with the corresponding volumes of each kit reagent to a final volume of 20 μL. Quantitative real-time polymerase chain reaction (qPCR) was performed by using the StepOnePlus^TM Real-Time PCR System and TaqMan PCR Master Mix (Applied Biosystems, Foster, CA, United States). 25 ng of cDNA was loaded in a final volume of 20 μL containing sequence-specific primers and TaqMan probes (Mm01204954_g1 for Arc, Mm04230607_s1 for bdnf, Mm00487425_m1 for c-fos, and Mm00607939_s1 for β-actin). Each sample was tested in duplicate. qPCR conditions were 2 min at 50°C, 10 min at 95°C, 40 cycles/15 s at 95°C, and 60 s at 60°C. Changes in gene expression were defined by using the comparative Ct method for each experimental sample. Gene expression was normalized by using the mean of Ct values of the housekeeping gene β-actin.

c-fos mRNA = c-fos mRNA expression (qPCR) in ventral and dorsal striatum; format: in vivo, mice; conditions: 10 mg/kg i.p., vs saline; for c-fos expression in the DS, 30 min: 30 min after injection; for c-fos expression in the DS, 120 min: 120 min post injection; for c-fos expression in the VS, 120 min: 120 min after administration
Protocol: as §5, §6

Arc mRNA [2] = test system: Arc mRNA; design: method as in Giannotti et al., 2017; conditions: 30 min and 2 h after administration; ref Giannotti et al., 2017; cited from earlier work

T1 sequence (P31645 whole entry): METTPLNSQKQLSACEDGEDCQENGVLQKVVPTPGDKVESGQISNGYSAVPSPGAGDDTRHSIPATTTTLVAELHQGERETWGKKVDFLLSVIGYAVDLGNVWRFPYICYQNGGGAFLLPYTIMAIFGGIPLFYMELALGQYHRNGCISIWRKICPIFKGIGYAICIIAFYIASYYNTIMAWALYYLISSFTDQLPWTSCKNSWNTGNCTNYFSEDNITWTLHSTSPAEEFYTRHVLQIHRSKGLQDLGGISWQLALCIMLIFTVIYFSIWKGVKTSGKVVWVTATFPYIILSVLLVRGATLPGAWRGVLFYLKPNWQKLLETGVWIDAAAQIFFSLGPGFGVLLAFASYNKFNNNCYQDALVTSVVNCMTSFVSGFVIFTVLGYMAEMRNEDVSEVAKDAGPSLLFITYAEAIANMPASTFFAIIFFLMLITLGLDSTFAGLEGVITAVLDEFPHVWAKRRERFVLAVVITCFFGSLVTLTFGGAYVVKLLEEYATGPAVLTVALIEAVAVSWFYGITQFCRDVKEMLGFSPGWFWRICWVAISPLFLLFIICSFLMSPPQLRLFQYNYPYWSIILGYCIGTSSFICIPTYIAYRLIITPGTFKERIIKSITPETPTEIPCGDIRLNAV
T2 sequence (Q01959 whole entry): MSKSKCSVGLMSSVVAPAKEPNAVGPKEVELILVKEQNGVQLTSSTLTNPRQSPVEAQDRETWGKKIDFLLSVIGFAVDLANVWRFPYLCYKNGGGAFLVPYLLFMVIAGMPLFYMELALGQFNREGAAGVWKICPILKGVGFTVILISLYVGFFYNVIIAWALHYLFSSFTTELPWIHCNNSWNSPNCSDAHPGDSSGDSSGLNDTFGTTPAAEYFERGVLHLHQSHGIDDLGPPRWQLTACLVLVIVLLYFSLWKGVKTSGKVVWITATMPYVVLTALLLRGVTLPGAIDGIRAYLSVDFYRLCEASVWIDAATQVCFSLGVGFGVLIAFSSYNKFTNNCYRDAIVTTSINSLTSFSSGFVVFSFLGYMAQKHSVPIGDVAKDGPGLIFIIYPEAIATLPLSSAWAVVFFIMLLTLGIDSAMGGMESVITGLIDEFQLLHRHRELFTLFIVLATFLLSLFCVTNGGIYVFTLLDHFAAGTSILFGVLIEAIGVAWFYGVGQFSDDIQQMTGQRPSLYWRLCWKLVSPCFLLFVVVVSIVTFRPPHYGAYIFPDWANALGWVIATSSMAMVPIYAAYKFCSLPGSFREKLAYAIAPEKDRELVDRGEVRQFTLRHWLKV

Compound	IC50 (hSERT) [µM]	IC50 (hDAT) [µM]	hDAT/hSERT ratio (hDAT)	[3H]5-HT release at the SERT (in words) (SERT)	HLA after 30 mg/kg compared to the medium dose (10 mg/kg) (Swiss CD-1 mice)	Arc gene expression in the DS, 120 min (Arc mRNA [1])	Arc gene expression in the VS, 120 min (Arc mRNA [1])	c-fos expression in the DS, 30 min (c-fos mRNA)	c-fos expression in the DS, 120 min (c-fos mRNA)	Distance traveled (Swiss CD-1 mice; 10 mg/kg, independent experiment, N = 15)	Arc mRNA levels in the striatum after acute injection (Arc mRNA [2])	HLA vs saline at the lowest dose (Swiss CD-1 mice; 3 mg/kg i.p., 60 min)	Persistence of the increase in locomotor activity (Swiss CD-1 mice; 10 mg/kg i.p.)	c-fos expression in the VS, 120 min (c-fos mRNA)
CCCC(NC)C(=O)c1ccc(C)cc1 (stereo not drawn) [4-MPD, 4’-methyl-α-methylaminovalerophenone]	30.9 ± 6.23	0.29 ± 0.05	108	most potent	significant increase	–	–	–	–	–	–	–	–	–
CCCC(NCC)C(=O)c1ccc(C)cc1 (stereo not drawn) [4-MeAP, 4’-methyl-α-ethylaminovalerophenone]	13.3 ± 0.89	0.14 ± 0.02	93	most potent	significant increase	significant increase	significant increase	significant overexpression	increased	–	–	–	–	–
COC(=O)[C@H]1[C@@H](OC(=O)c2ccccc2)C[C@@H]2CC[C@H]1N2C [Cocaine, reference compound]	–	–	–	–	–	–	–	–	–	16,018 ± 1,118 cm	–	–	–	–
CCCC(C(=O)c1ccc2c(c1)OCO2)N1CCCC1 (centres unmarked) [MDPV, 3,4-methylenedioxypyrovalerone]	–	–	–	–	–	–	–	–	–	–	increased	–	–	–
CCCC(NCC)C(=O)c1ccccc1 (stereo not drawn) [N-Ethyl-pentedrone, α-ethylaminovalerophenone]	127 ± 5.14	0.1 ± 0.03	>1,000	most potent	ceiling effect	significant increase	significant increase	significant overexpression	increased	–	–	increase	more than 1 hour	significant increase
CCCC(NC)C(=O)c1ccccc1 (stereo not drawn) [Pentedrone, α-methylaminovalerophenone]	138 ± 13.4	0.21 ± 0.02	666	milder release	ceiling effect	–	–	–	increased	–	–	–	–	significant increase
CCCC(NC)C(=O)c1ccc2c(c1)OCO2 (stereo not drawn) [Pentylone, 3’,4’-methylendioxy-α-methylaminovalerophenone]	23.2 ± 2.68	0.51 ± 0.07	45	milder release	significant increase	significant increase	significant increase	–	increased	–	–	–	–	–
CCCC(C(=O)c1ccccc1)N1CCCC1 (stereo not drawn) [α-PVP]	–	–	–	–	–	–	–	–	–	–	did not alter	–	–	–
